For 14 compounds, pest or weed control and inhibition results are on record in patent US8658570B2, “Use of anthranilamide derivatives for controlling insects and spider mites by drenching, soil mixing, furrow treatment, drip application, soil, stem or flower injection, in hydroponic systems, by planting hole treatment or dip application, floating or seedbox application or by treating seed, and …” (Bayer Cropscience AG, priority 2010, dated 2014).

What all share (type): in vivo
In test [1] the test system is Plutella xylostella. Briefly: Plutella xylostella test on Savoy cabbage; drench application. Conditions: soil, 168 h, mortality 7 days after infestation, read-out: % Activity (according to Abbott); for pest or weed control at 0.5 mg/plant: 0.5 mg of ai/plant; for pest or weed control at 1 mg/plant: 1 mg of ai/plant. On the procedure: Plutella xylostella test on Savoy Cabbage; Drench Application
(§1) • Solvent: 4 parts by weight of acetone • Emulsifier: 1 part by weight of alkylaryl polyglycol ether
(§2) To produce a suitable preparation of active compound, 1 part by weight of active compound is mixed with the stated amounts of solvent and emulsifier, and the concentrate is diluted with water to the desired concentration. Savoy cabbage (Brassica oleracea) is watered with a solution of the product in question (volume of water: 60 ml/plant). The stated concentration refers to the amount of active compound per plant. After about 1 week, the treated plants are infested with larvae of the diamondback moth (Plutella xylostella). After 1 week, the activity in % is determined. 100% means that all caterpillars have been killed; 0% means that none of the caterpillars have been killed.

The test system of test [2] is Spodoptera frugiperda. Briefly: Spodoptera frugiperda test on maize; drench application (Example B). Conditions: soil, 168 h, mortality 7 days after infestation, read-out: % Activity (according to Abbott); for pest or weed control at 0.5 mg/plant: 0.5 mg of ai/plant; for pest or weed control at 1 mg/plant: 1 mg of ai/plant. How it is done:
Spodoptera frugiperda Test on Maize; Drench Application
as §1
as §2, with “Maize plants (Zea mays) are” for “Savoy cabbage (Brassica oleracea) is”, “50” for “60”, “with” for “with larvae of”, “armyworm (Spodoptera frugiperda).” for “diamondback moth (Plutella xylostella).”

Test [3] concerns Heliothis armigera. Kind of test: Heliothis armigera test on cotton; drench application. The settings on record: Helicoverpa armigera, soil, 168 h, mortality 7 days after infestation, read-out: % Activity (according to Abbott); for pest or weed control at 0.5 mg/plant: 0.5 mg of ai/plant; for pest or weed control at 1 mg/plant: 1 mg of ai/plant. On the procedure: Heliothis armigera Test on Cotton; Drench Application
as §1
as §2, with “Cotton plants (Gossypium hirsuium) are” for “Savoy cabbage (Brassica oleracea) is”, “50” for “60”, “cotton bollworm (Heliothis armigera).” for “diamondback moth (Plutella xylostella).”

Test [4] deals with Diabrotica balteata. Briefly: Diabrotica balteata test on maize; drench application. The settings on record: soil, 192 h, mortality 8 days after treatment, mixtures about 95%/5%, read-out: % Activity (according to Abbott). On the procedure: Diabrotica balteata Test on Maize; Drench Application • Solvent: 7 parts by weight of dimethylformamide • Emulsifier: 1 part by weight of alkylaryl polyglycol ether To produce a suitable preparation of active compound, 1 part by weight of active compound is mixed with the stated amounts of solvent and emulsifier, and the concentrate is diluted with water to the desired concentration. Maize plants (Zea mays) are watered with the solution of the product in question and infested with larvae of the banded cucumber beetle (Diabrotica baltenta). After 8 days, the activity in % is determined. 100% means that all caterpillars have been killed; 0% means that none of the caterpillars have been killed.

In test [5] the test system is Spodoptera frugiperda. Kind of test: Spodoptera frugiperda test on maize; drench application (Example B-1). The settings on record: soil, 336 h, mortality 14 days after treatment, read-out: % Activity (according to Abbott). How it is done:
Spodoptera fugiperda Test on Maize; […] Application • Solvent: 7 parts by weight of dimethylformamide • Emulsifier: 1 part by weight of alkylaryl polyglycol ether To produce a suitable preparation of active compound, 1 part by weight of active compound is mixed with the stated amounts of solvent and emulsifier, and the concentrate is diluted with water to the desired concentration. Maize plants (Zea mays) are watered with a solution of the product in question and infested with the armyworm (Spadoptera frugiperda). After 14 days, the activity in % is determined. 100% means that all caterpillars have been killed; 0% means that none of the caterpillars have been killed.

Test [6] concerns Myzus persicae. Kind of test: Myzus persicae test on Savoy cabbage; drench application. Conditions: soil, 240 h, mortality 10 days after treatment, mixtures about 85%/15% and 84%/15%, read-out: % Activity (according to Abbott). How it is done:
Myzus persicae Test on Savoy Cabbage; Drench Application • Solvent: 7 parts by weight of dimethylformamide • Emulsifier: part by weight of alkylaryl polyglycol ether To produce a suitable preparation of active compound, 1 part by weight of active compound is mixed with the stated amounts of solvent and emulsifier, and the concentrate is diluted with water to the desired concentration. Savoy cabbage (Brassica oleracea) heavily infested by the green peach aphid (Myzus persicae) is watered with a solution of the product of the desired concentration. After 10 days, the activity in % is determined. 100% means that all of the aphids have been killed: 0% means that none of the aphids have been killed.

The structures appear in SMILES notation.

Turning to `Cc1cc(C#N)cc(C(=O)NC(C)(C)C)c1NC(=O)c1cc(Cn2nnc(C3CC3)n2)nn1-c1ncccc1Cl` [(I-1-71)], the values for the pest or weed control at 0.5 mg/plant in test [1] and in test [2] were 90% and 85%, respectively.
For the compound `Cc1cc(Br)cc(C(=O)NCC#N)c1NC(=O)c1cc(Cn2nnc(C(F)(F)F)n2)nn1-c1ncccc1Cl` [(I-1-68)], the pest or weed control at 0.5 mg/plant in test [3], in test [1] and in test [2] was 100% each time. Further, in test [4], the inhibition at 20 ppm is 100%.
On to `Cc1cc(C#N)cc(C(=O)NC(C)(C)C)c1NC(=O)c1cc(Cn2nnc(C(F)(F)F)n2)nn1-c1ncccc1Cl` [(I-1-2)], for which the inhibition at 20 ppm in test [5] amounted to 100%.
`CNC(=O)c1cc(C#N)cc(C)c1NC(=O)c1cc(Cn2nnc(C(F)(F)F)n2)nn1-c1ncccc1Cl` [(I-1-1)]: the inhibition at 20 ppm in test [4] and in test [5] was 100% in each case.
`CNC(=O)c1cc(F)cc(C)c1NC(=O)c1cc(Cn2nnc(C(F)(F)F)n2)nn1-c1ncccc1Cl` [(I-1-61)]: the pest or weed control at 0.5 mg/plant in test [3], in test [1] and in test [2] was 100% in each case.
With `Cc1cc(C#N)cc(C(=O)NC(C)(C)C)c1NC(=O)c1cc(Cn2nnc(C(F)(F)F)n2)nn1-c1ncccc1Br` [(I-1-65)], the pest or weed control at 1 mg/plant in test [3] was 100%; in test [1], 100%; in test [2], 95%.
Turning to `Cc1cc(C#N)cc(C(=O)NC(C)(C)C)c1NC(=O)c1cc(Cn2nnc(C(F)(F)F)n2)nn1-c1ncccc1F` [(I-1-70)], the figures for the pest or weed control at 1 mg/plant in test [3], in test [1] and in test [2] were 95%, 100% and 90%, respectively.
Turning to `Cc1cc(C#N)cc(C(=O)NC(C)C)c1NC(=O)c1cc(Cn2nnc(C(F)(F)F)n2)nn1-c1ncccc1Br` [(I-1-67)], the figures for the pest or weed control at 1 mg/plant in test [3], in test [1] and in test [2] were 100%, 100% and 90%, respectively.
Take `CNC(=O)c1cc(C#N)cc(C)c1NC(=O)c1cc(Cn2nnc(C(F)(F)F)n2)nn1-c1ncccc1Br` [(I-1-62)]: the results for the pest or weed control at 0.5 mg/plant in test [3], in test [1] and in test [2] were 95%, 100% and 98%, respectively. Besides, the values for the inhibition at 20 ppm in test [4] and in test [6] were 100% and 80%, respectively.
`CNC(=O)c1cc(Br)cc(C)c1NC(=O)c1cc(Cn2nnc(C(F)(F)F)n2)nn1-c1ncccc1Cl` [(I-1-64)]: the pest or weed control at 0.5 mg/plant in test [3], in test [1] and in test [2] was 100% each time.
For `CNC(=O)c1cc(I)cc(C)c1NC(=O)c1cc(Cn2nnc(C(F)(F)F)n2)nn1-c1ncccc1Cl` [(I-1-69)], the pest or weed control at 0.5 mg/plant in test [3] was 100%; in test [1], 100%; in test [2] it was 85%. For the same compound, the inhibition at 20 ppm in test [4] was 100%.
Take `Cc1cc(C#N)cc(C(=O)NC(C)(C)C)c1NC(=O)c1cc(Cn2nnc(C(F)(F)F)n2)nn1-c1ncccc1Cl` [(I-1-63)]: the pest or weed control at 0.5 mg/plant in test [3], in test [1] and in test [2] was 100% in each case.
Take `CCNC(=O)c1cc(C#N)cc(C)c1NC(=O)c1cc(Cn2nnc(C(F)(F)F)n2)nn1-c1ncccc1Cl` [(I-1-3)]: the pest or weed control at 0.5 mg/plant in test [3], in test [1] and in test [2] was 100% in each case. Besides, in test [6], the inhibition at 20 ppm was determined as 90%.
As to `CNC(=O)c1cc(C#N)cc(C)c1NC(=O)c1cc(Cn2nnc(C(F)(F)F)n2)nn1-c1c(F)cccc1Cl` [(I-1-66)], the pest or weed control at 1 mg/plant in test [3] was found to be 100%; in test [1], 90%; in test [2], 95%. Further, the inhibition at 20 ppm in test [4] and in test [6] was 90% in each case.
